Earlier results in US20040024041A1, “Dermal therapeutic system containing non-steroidal antiphlogistics with selective cox-2 inhibition” (priority 2000, published 2004).

Experiments:
[1] = patients receiving rofecoxib therapy vs patients receiving other non-steroidal anti-inflammatory drugs as comparison substance

SMILES: CS(=O)(=O)c1ccc(C2=C(c3ccccc3)C(=O)OC2)cc1 [rofecoxib, 3-phenyl-4-[4-methylsulfonylphenyl]-2-(5H)furanone]
- perforations, ulcers and bleeds in the upper gastrointestinal tract [1]: significantly fewer
- percentage of patients with endoscopically detectable gastroduodenal ulcers (after 12 weeks of treatment, rofecoxib 25 or 50 mg/day vs placebo): comparable percentage
- cumulative incidence of gastroduodenal ulcers (over 12 and 24 weeks, respectively, vs ibuprofen 2 400 mg/day): significantly less
